This note sets out measurements from publication PMC4747340, “A new class of small molecule estrogen receptor-alpha antagonists that overcome anti-estrogen resistance” (Oncotarget, 2015).

The test system of one data set is cathepsin D. The data set is described as follows: Western blotting of cathepsin D in LCC9 cells. Format: cell-based, human. As to conditions: LCC9, 24-hr exposure. As to the method: MCF-7 cells in DMEM plus 5% CSS were subjected to the indicated treatment(s) for 24-hr and then harvested for Western blotting to detect cathepsin D or actin (control for loading and transfer). B., D. LCC9 cells were treated with vehicle only (DMSO) or the indicated compound for 24-hr and then harvested for Western blotting for cathepsin D and actin. The data shown in each panel are representative of three independent experiments.
After the indicated cell treatment(s), the cells were harvested, and whole-cell lysates were prepared using RIPA buffer (Santa Cruz). Equal aliquots of whole-cell protein (either 100 μg unprecipitated whole-cell lysate or one half of the precipitated protein from 500-μg whole-cell lysate) were electrophoresed on 4-12% SDS-polyacrylamide gradient gels, transferred to nitrocellulose membranes (Millipore, Bedford, MA), and blotted using primary antibodies against BRCA1 (C-20, rabbit polyclonal, 1:200 dilution; Santa Cruz), cathepsin D (R-20, goat polyclonal, 1:300; Santa Cruz), ER (F10, mouse monoclonal, 1:500; Santa Cruz), or actin (goat polyclonal, sc-1615, 1:400; Santa Cruz). […]

Data set [1] can be described thus: MTT assay of cell viability. Format: cell-based. As to conditions: human, MCF-7 cells, 24-hr exposure, relative to untreated control. The method, then:
Figure 3 Cytotoxicity and specificity of compounds A., B. Subconfluent proliferating cells were incubated with the indicated compound at the indicated concentration for 24-hr and then harvested for MTT dye reduction assays. Cell viability values (relative to untreated control cells) are means ± SEMs of 10 replicate wells. C., D. Subconfuent proliferating T47D cells were transfected overnight with the MMTV-Luc reporter (0.25 μg per well in 24-well dishes), washed, and allowed to recover for several hr in fresh medium. The cells were then treated with a synthetic progestin (R5020, 10 nM) plus the indicated compound at the indicated concentration for 24 hr and then harvested for luciferase assays. Luciferase activity is expressed relative to the MMTV-Luc control (no agents added) (panel A) or as a percentage of the +R5020 positive control (panel B). Values are means ± SEMs of four replicate wells. The data shown in each panel are representative of three independent experiments.
Assays were performed as described before. After the indicated treatment, cells in 96-well dishes were solubilized and assayed for MTT dye reduction. Cell viability was expressed as the amount of dye reduction relative to untreated control cells. and calculated as means ± SEMs for 10 replicate wells.
(Formazan colour is commonly taken as a measure of viable cells.)

The subject of the next data set is LCC2 cells. The data set is described as follows: cell proliferation assay (cell counts days 1, 3, 5), LCC2. Format: cell-based, human. Particulars: DMEM + 5% charcoal-stripped serum. As to the method: Starting on day 1, cells were refed daily with fresh medium (DMEM plus 5% CSS) containing the indicated agent. In panel F, the cells were refed with medium also containing ER-siRNA or control-siRNA (100 nM) at the indicated times. Wells were counted on days 1, 3, and 5 to determine cell numbers. Values are means ± SEMs of triplicate wells. The data shown in each panel are representative of three independent experiments.
Assays were performed using as the growth medium phenol red-free DMEM containing 5% charcoal-stripped serum. Briefly, proliferating cells were harvested using trypsin, counted, inoculated into 12-well dishes at 1 × 10^4 cells per well on day 0 and allowed to attach and recover for 24 hr. The cells were then treated with the indicated agents for up to five days, with daily refeeding with fresh medium and agents. Triplicate wells were counted by Coulter Counter on days 1, 3, and 5. For experiments using siRNAs, cells were treated with the indicated siRNA (100 nM) starting on day -2, and fresh siRNA was added on days 0, 2, and 4.

Data set [2] has as its target T1, estrogen receptor-alpha (ER) (Homo sapiens, UniProt P03372).
T1 sequence (P03372 1-595): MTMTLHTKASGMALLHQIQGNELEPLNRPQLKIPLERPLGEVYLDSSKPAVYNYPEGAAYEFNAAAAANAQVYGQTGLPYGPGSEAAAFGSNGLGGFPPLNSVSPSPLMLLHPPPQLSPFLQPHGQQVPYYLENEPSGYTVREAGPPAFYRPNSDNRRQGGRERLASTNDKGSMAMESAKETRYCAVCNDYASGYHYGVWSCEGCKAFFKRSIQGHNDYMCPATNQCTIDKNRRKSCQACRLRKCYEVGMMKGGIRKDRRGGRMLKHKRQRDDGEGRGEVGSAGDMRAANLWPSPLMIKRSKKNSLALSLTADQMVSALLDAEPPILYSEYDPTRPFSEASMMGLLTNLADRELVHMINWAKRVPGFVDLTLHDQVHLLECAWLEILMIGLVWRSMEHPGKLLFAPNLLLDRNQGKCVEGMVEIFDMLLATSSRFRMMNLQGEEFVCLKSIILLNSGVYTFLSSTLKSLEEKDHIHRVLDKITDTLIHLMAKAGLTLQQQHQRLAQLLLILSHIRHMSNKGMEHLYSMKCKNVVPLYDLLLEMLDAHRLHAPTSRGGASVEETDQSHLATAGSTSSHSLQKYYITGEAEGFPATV
The data set is described as follows: constitutive ER activity, ERE-TK-Luc reporter, in anti-estrogen resistant LCC9 cells. Format: cell-based. As to conditions: for IC50: LCC9, no E2, 24 hr, read-out: IC50 for inhibition of ER activity in LCC9. More on the design: LCC9 cells in 24-well dishes were transfected overnight with the ERE-TK-Luc reporter plasmid; endogenous in cells; host or cells: LCC9. The method, then:
For MCF-7, luciferase activity is expressed as a fold-change relative to the no E2 control. For LCC9, luciferase activity is expressed relative to the control without the reporter present. Values plotted are means ± SEMs of four replicate wells. The data shown in each panel are representative of three independent experiments.
The cells were then treated with the indicated concentrations of the six bioactive compounds or vehicle only (DMSO) for 24-hr and assayed for luciferase activity. Luciferase activity is expressed as a percentage of the DMSO control. Values are means ± SEMs of four replicate wells. The data shown in each panel are representative of three independent experiments.
The cells were then harvested for luciferase assays. Luciferase activity was expressed as a fold-change relative to the no reporter control. Values plotted are means ± SEMs of four replicate wells. The data shown are representative of three independent experiments.
Subconfluent cells in 24-well dishes were transfected overnight with 0.25 μg of each indicated vector plus the ERE-TK-Luc reporter in serum-free DMEM containing Lipofectamine2000 (Life Technologies, Washington, DC). Total transfected DNA was kept constant by addition of control vector. The cells were washed, incubated in phenol red-free DMEM containing 5% charcoal-stripped serum (obtained from the Tissue Culture Shared Resource) (0.2 ml/well) ± E2 (10 nM) ± the indicated compound for 24-hr, and harvested for luciferase assays. For each assay condition was tested in quadrupicate. To monitor the transfection efficiency, cultures were co-transfected with plasmid pRSV-β-gal (Promega, Madison, WI) to visualize transfected cells by X-gal staining.

SMILES strings stand for the structures. A value given as a limit tells only on which side of the number the result lay.

`O=C(c1cc(Br)ccc1O)c1cc(Br)ccc1O` [4631-P/1]: in the data set on cathepsin D, the “constitutive cathepsin D levels in LCC9” value is on record as “decreased”. In addition, in data set [1], the viability – broadly, a read-out of living cells in per cent, often relative to untreated cells – at 24 h, 1 µM stood at 100% and the viability at 24 h, 20 µM was more than 90%. The “proliferation of Tamoxifen-resistant LCC2 cells” value in the data set on LCC2 cells is on record as “inhibited ER-dependent cell proliferation”. In addition, the “effect on ER activity in LCC9 cells, single agent” value in data set [2] (LCC9, 24 hr, Tam 5 μM in b8) is “inhibited ER activity in LCC9 cells”. Besides, the IC50 (in general, the concentration that gives 50% inhibition) in data set [2] is not above 1 µM. In addition, the “ER activity in LCC9 cells, compound combined with Tam” value in data set [2] (compound plus Tam compared with compound alone, 24 hr) was “significantly lower ER activity than 4631-P/1 alone”.
With `O=C(CC(c1ccccc1)N1CCCCC1)c1ccccc1` (stereo not drawn) [35446-L/1, 1,3-diphenyl-3-(piperidin-1-yl)propan-1-one], in the data set with cathepsin D, the “constitutive cathepsin D levels in LCC9” value is “decreased”. In addition, in data set [1], the viability at 24 h, 1 µM came out at 100% and the viability at 24 h, 20 µM was more than 90%. Also, the “proliferation of Tamoxifen-resistant LCC2 cells” value in the data set on LCC2 cells was “inhibited ER-dependent cell proliferation”. Besides, the IC50 in data set [2] is not above 1 µM.
